In article PMC9602792, “Preclinical evaluation of the epithelial sodium channel inhibitor AZD5634 and implications on human translation” (American Journal of Physiology - Lung Cellular and …, 2022):

Experiments:
[1] = test system: amiloride-sensitive potential difference; parameters: method as in PMID 35227647; conditions: perfused to the nasal surface, people with CF; cited from earlier work
[2] = test system: HBECs grown under ALI conditions; test: Gravimetric measurement of ASL (fluid retention) in HBEC ALI cultures; format: cell-based, human; conditions: gravimetric ALI assay; concentrations of 0.1 µM and above
Description: After 3–4 wk, the HBEC ALI cultures were washed with PBS twice before the experiment was initiated. Thirty microliters of either vehicle or test compound (10 μM) was added apically and inserts were weighed after removal of basolateral fluid as a crude but simple way to measure retention of fluid on the apical side of the airway cultures. The weighing procedure was repeated at 4, 8, and 24 h.

[3] = test system: healthy sheep; test: Mucociliary clearance (99mTc-sulfur colloid) in healthy sheep after nebulized drug; format: in vivo
Excerpt: Twenty-one adult female Florida native sheep (37–54 kg, Fair Meadow Sheep) were used in the present study, once or twice with a washout of at least 1 wk between experiments. Animals were restrained in an upright position in a specialized body harness in modified carts. The head of the animal was immobilized, and after local anesthesia of the nasal passage was induced with 2% lidocaine, the animals were nasally intubated with a standard endotracheal tube (7.5 mm diameter, Mallinckrodt, St. Louis, MO). A flexible bronchoscope was used to guide the tube and verify its position in the trachea. After intubation, the animals were allowed to rest for ∼20 min before administration of any agent.
Nebulized drug or placebo was given as an aerosol where 3 mL volume (compound in 10% EtOH:90% saline) was delivered at a tidal volume of 300 mL. To maximize central deposition in the airways, a dosimeter was used to deliver the compound. The nebulizer was connected to the dosimeter system consisting of a solenoid valve and a source of compressed air (20 psi). The output of the nebulizer was connected to a T-piece, with one end attached to a respirator (Harvard Apparatus Inc., Holliston, MA). The system was activated for 1 s at the onset of the inspiratory cycle of the respirator, which was set at an inspiratory/expiratory ratio of 1:1 and a rate of 20 breaths/min. To evaluate the effect of repeated dosing, AZD5634 was given twice daily for 4 days and MCC was measured 8 h after the 7th dose.
MCC rate was measured by means of aerosolized technetium-labeled sulfur colloid (^99mTC-SC) and nebulized via the same dosimeter system as for the drug administration. […] Aerosol ^99mTC-SC was generated using an Air Life nebulizer (CareFusion, Yorba Linda, CA). Approximately 20 mCi of ^99mTC-SC in a total of 2 mL of sterile saline was placed in the nebulizer. A tidal volume of 500 mL was used to deliver the ^99mTC-SC over 3 min.
Blood was kept on ice until centrifuged (4,000 g, 5 min, 4°C) and plasma (approximately 2 mL) was transferred to two Eppendorf tubes per sample and frozen at −20°C until analyzed. Sodium and potassium concentrations were analyzed at Mount Sinai Medical Center immediately after sampling and before centrifugation (IRMA TruPoint Analysis System). The plasma samples for analysis of drug concentration were shipped on dry ice to AstraZeneca R&D, Mölndal, Gothenburg and analyzed by means of LC-MSMS (001–04 Method for Blood Plasma Analysis).
Rat electrolyte data were analyzed by means of repeated-measures ANCOVA (SAS v.9).

[4] = test system: sodium/hydrogen exchangers; parameters: method as in PMID 33974881; conditions: specificity unknown; cited from earlier work

In the case of AZD5634, the “effect on amiloride-sensitive nasal potential difference” value [1] is listed as “acutely inhibited amiloride-sensitive potential difference”, the “duration of (fluid-retaining) effect on ASL” value [2] is listed as greater than 24 h and the “MCC effect after repeated administration” value ([3]; 3 μg/kg bid for 4 days (7 doses), MCC 8 h after 7th dose) is listed as “effect magnitude was maintained compared with single-dose studies”. The “duration of MCC effect” value ([3]; 12 μg/kg given 0, 4, 8, 12, 24 h before 99mTc) was “retained for 8 h, with approximately half left at 12 h and another half of the remaining effect gone by 24 h”, the “dose giving max effect on MCC” value ([3]; dose-response 1–330 µg/kg, healthy sheep) was 0.12 mg/kg and the dose giving max efficacy on MCC ([3]; dose-response, healthy sheep) was 0.12 mg/kg. The “effect on MCC” value ([3]; nebulized 1–330 µg/kg, given just before 99mTc) was “dose-dependent effect on MCC”, the “peak effect on mucus clearance (augmentation)” value ([3]; normal sheep in vivo) was 30% and the “effect on sodium/hydrogen exchangers” value [4] was “blocks sodium/hydrogen exchangers”.
